This is an account of results in patent US11472803B2, “7-substituted 1-aryl-naphthyridine-3-carboxylic acid amides and use thereof” (Bayer Aktiengesellschaft, priority 2016, dated 2022).

What is called pEC50 is −log10 of the EC50, conventionally taken in molar units. The low end stands for a large EC50, the high end for a small EC50. By Emax is commonly meant the size of the effect at its maximum, as opposed to the concentration needed.

pEC50: −log10 of the molar value.

This experiment has as its target T1, human M2 receptor (Homo sapiens, UniProt P08172).
T1 construct: expressed in transfected cells; host or cells: CHO-DUKX (CHO-DUKX-M2-GIRK)
T1 sequence (P08172 1-466): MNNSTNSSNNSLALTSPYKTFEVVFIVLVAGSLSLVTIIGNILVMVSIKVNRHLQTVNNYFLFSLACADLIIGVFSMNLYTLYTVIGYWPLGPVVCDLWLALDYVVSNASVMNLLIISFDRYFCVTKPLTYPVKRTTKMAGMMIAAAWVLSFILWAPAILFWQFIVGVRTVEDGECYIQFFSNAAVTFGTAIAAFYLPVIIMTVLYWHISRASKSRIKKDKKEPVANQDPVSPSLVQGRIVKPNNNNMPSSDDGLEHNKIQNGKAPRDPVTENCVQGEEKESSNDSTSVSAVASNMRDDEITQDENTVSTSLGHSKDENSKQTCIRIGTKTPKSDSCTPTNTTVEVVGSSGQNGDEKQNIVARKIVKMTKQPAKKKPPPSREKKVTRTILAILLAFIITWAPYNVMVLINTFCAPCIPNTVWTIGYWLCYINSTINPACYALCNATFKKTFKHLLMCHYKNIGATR
In words: Functional M2-GIRK1/4 activation test: allosteric potency (EC50) and efficiency at EC20 acetylcholine. The format is cell-based. The settings on record: CHO-DUKX-M2-GIRK cells; for pEC50: voltage-sensitive dye, acetylcholine at EC20, in some cases mean of two or more determinations; for Efficiency / Emax: boosting of the acetylcholine effect at EC20 acetylcholine concentration. The text has this: The binding of orthosteric agonists (endogenous ligand: acetylcholine) to the M2 receptor leads to receptor activation or a change in conformation of the receptor in the manner of a shift in equilibrium in favour of the active receptor conformation.
The agonist-induced change in conformation of the M2 receptor results in a Gαi protein activation. […] Under physiological conditions, the result is then a selective efflux of potassium from the cell along the electrochemical gradient. […] The extent of hyperpolarization can therefore be regarded as a measure of the activation of the M2 receptor.
The test cell used is a recombinant CHO-DUKX cell line which has been stably transfected with cDNA coding for the human M2 receptor and with cDNA coding for both GIRK1/4 subunits (CHO-DUKX-M2-GIRK). The transmembrane potential, or the relative changes in the transmembrane potential as a function of substance addition or M2 activation, is determined by means of a voltage-sensitive dye (FLIPR Membrane Potential Assay Kit Blue, Molecular Devices #R8034) and the measurement of cell fluorescence using a proprietary fluorescence imaging instrument.
The sowing medium consisted of MEM alpha medium (supplemented with 5% PCS, 2% Glutamax, no genticin).
For the particular measurement, the medium was removed and the cells were laden with the volt-age-sensitive dye for at least 6 min at room temperature (30 μl of loading buffer per 384-well). This was followed, in a first measurement, by the determination of the fluorescence for the resting transmembrane potential for a period of 5 sec. Thereafter, 10 μl in each case of the test substances diluted in loading buffer were added, followed by a second measurement to determine the transmembrane potential for a period of 50 sec in 1 sec increments. Finally, the cells were admixed with 10 μl of agonist solution (acetylcholine dissolved in loading buffer). Acetylcholine was used at the concentration corresponding to the EC20, which had been determined in a preliminary test. The M2-mediated GIRK1/4 activation or hyperpolarization was then monitored in a third measurement over a period of 60 sec. The EC50 value (degree of allosteric potency of test compound) and the efficiency (measure of the boosting of the acetylcholine effect at an EC20 acetylcholine concentration) were determined with the aid of a 4-parameter logistic function (Hill function).

The compound `CC(C)C(NC(=O)c1cn(-c2c(F)cc(F)cc2F)c2nc(N3CC[C@H](O)C3)c(F)cc2c1=O)C(F)(F)F` (single isomer, unassigned) [Example 140] showed a negative-log EC50 (pEC50) of 8.28 and an Efficiency of 95%.
In turn, `CC(C)(NC(=O)c1cn(-c2c(F)cc(F)cc2Cl)c2nc(N3C[C@@H](O)[C@H](O)C3)c(F)cc2c1=O)C(F)F` (single isomer, unassigned) [Example 142] gave a pEC50 of 7.41 and an Emax of 99%.
As for `CC(NC(=O)c1cn(-c2c(F)cc(F)cc2F)c2nc(N3CCC(O)C(O)C3)c(F)cc2c1=O)C(F)(F)C(F)(F)F` (single isomer, unassigned) [Example 183, 7-(3,4-Dihydroxypiperidin-1-yl)-6-fluoro-4-oxo-N-(3,3,4,4,4-pentafluorobutan-2-yl)-1-(2,4,6-trifluorophenyl)-1,4-dihydro-1,8-naphthyridine-3-carboxamide], the pEC50 is 7.37 and the Efficiency came out at 96%.
For `CC(NC(=O)c1cn(-c2c(F)cc(F)cc2F)c2nc(N3CCC(CO)(CO)CC3)c(F)cc2c1=O)C(F)(F)C(F)(F)F` (single isomer, unassigned) [Example 187, 7-[4,4-bis(hydroxymethyl)piperidin-1-yl]-6-fluoro-4-oxo-N-(3,3,4,4,4-pentafluorobutan-2-yl)-1-(2,4,6-trifluorophenyl)-1,4-dihydro-1,8-naphthyridine-3-carboxamide], the pEC50 is 8.00 and the maximum response (Emax) amounted to 90%.
For `CC(NC(=O)c1cn(-c2c(F)cc(F)cc2F)c2nc(N3CC[C@H](O)[C@@H]3CO)c(F)cc2c1=O)C(F)(F)C(F)(F)F` (single isomer, unassigned) [Example 194] the same measures were 7.50 and 94%.
For `O=C(NC(C1CC1)C(F)(F)C(F)(F)F)c1cn(-c2c(F)cc(F)cc2F)c2nc(N3C[C@@H](O)[C@H](O)C3)c(F)cc2c1=O` (single isomer, unassigned) [Example 202], the pEC50 was 9.00 and the Efficiency came to 100%.
In turn, `O=C(NC(C1CC1)C(F)(F)C(F)(F)F)c1cn(-c2c(F)cc(F)cc2F)c2nc(N3CC4(COC4)C3)c(F)cc2c1=O` (single isomer, unassigned) [Example 204, N-[1-cyclopropyl-2,2,3,3,3-pentafluoropropyl]-6-fluoro-7-(2-oxa-6-azaspiro[3.3]hept-6-yl)-4-oxo-1-(2,4,6-trifluorophenyl)-1,4-dihydro-1,8-naphthyridine-3-carboxamide] had a pEC50 of 7.77 and an Emax of 97%.
`O=C(NC(C1CC1)C(F)(F)C(F)(F)F)c1cn(-c2c(F)cc(F)cc2F)c2nc(N3CC4(COC4)C3)c(F)cc2c1=O` (single isomer, unassigned) [Example 206, N-[1-cyclopropyl-2,2,3,3,3-pentafluoropropyl]-6-fluoro-7-(2-oxa-6-azaspiro[3.3]hept-6-yl)-4-oxo-1-(2,4,6-trifluorophenyl)-1,4-dihydro-1,8-naphthyridine-3-carboxamide] had a pEC50 of 8.00 and an Efficiency of 100%.
`CC(C)(C)C(NC(=O)c1cn(-c2c(F)cc(F)cc2F)c2nc(N3CC4(COC4)C3)c(F)cc2c1=O)C(F)(F)C(F)(F)F` (single isomer, unassigned) [Example 213, 6-Fluoro-7-(2-oxa-6-azaspiro[3.3]hept-6-yl)-4-oxo-N-[1,1,1,2,2-pentafluoro-4,4-dimethylpentan-3-yl]-1-(2,4,6-trifluorophenyl)-1,4-dihydro-1,8-naphthyridine-3-carboxamide] gave a pEC50 of 7.89 and a maximum response (Emax) of 100%.
`CC(C)(C)C(NC(=O)c1cn(-c2c(F)cc(F)cc2F)c2nc(N3CC(CO)(CO)C3)c(F)cc2c1=O)C(F)(F)C(F)(F)F` (single isomer, unassigned) [Example 214, 7-[3,3-bis(hydroxymethyl)azetidin-1-yl]-6-fluoro-4-oxo-N-[1,1,1,2,2-pentafluoro-4,4-dimethylpentan-3-yl]-1-(2,4,6-trifluorophenyl)-1,4-dihydro-1,8-naphthyridine-3-carboxamide] showed a pEC50 of 8.68 and an Emax of 100%.
Regarding `CC(C)(C)C(NC(=O)c1cn(-c2c(F)cc(F)cc2F)c2nc(N3CC4(COC4)C3)c(F)cc2c1=O)C(F)(F)C(F)(F)F` (single isomer, unassigned) [Example 215, 6-Fluoro-7-(2-oxa-6-azaspiro[3.3]hept-6-yl)-4-oxo-N-[1,1,1,2,2-pentafluoro-4,4-dimethylpentan-3-yl]-1-(2,4,6-trifluorophenyl)-1,4-dihydro-1,8-naphthyridine-3-carboxamide], the negative logarithm of the EC50 (pEC50) is 8.07 and the Efficiency is 100%.
The corresponding values for `CC(C)(C)C(NC(=O)c1cn(-c2c(F)cc(F)cc2F)c2nc(N3CC(CO)(CO)C3)c(F)cc2c1=O)C(F)(F)C(F)(F)F` (single isomer, unassigned) [Example 216, 7-[3,3-bis(hydroxymethyl)azetidin-1-yl]-6-fluoro-4-oxo-N-[1,1,1,2,2-pentafluoro-4,4-dimethylpentan-3-yl]-1-(2,4,6-trifluorophenyl)-1,4-dihydro-1,8-naphthyridine-3-carboxamide] are 8.82 and 99%.
The corresponding values for `O=C(NCC(F)(F)F)c1cn(-c2c(F)cc(F)cc2Cl)c2nc(N3C[C@@H](O)[C@H](O)C3)c(F)cc2c1=O` (single isomer, unassigned) [Example 222] are 6.26 and 61%.
The corresponding values for `O=C(NCC(F)(F)F)c1cn(-c2c(F)cc(F)cc2Cl)c2nc(N3C[C@@H](O)[C@H](O)C3)c(F)cc2c1=O` (single isomer, unassigned) [Example 223] are 7.59 and 86%.
`C[C@H](NC(=O)c1cn(-c2c(F)cc(F)cc2Cl)c2nc(N3C[C@@H](O)[C@H](O)C3)c(F)cc2c1=O)C(F)(F)F` (single isomer, unassigned) [Example 225] had a pEC50 of 6.96 and an Emax of 82%.
Take `C[C@@H](NC(=O)c1cn(-c2c(F)cc(F)cc2Cl)c2nc(N3C[C@@H](O)[C@H](O)C3)c(F)cc2c1=O)C(F)(F)F` (single isomer, unassigned) [Example 229]: the pEC50 was 6.59 and the Efficiency worked out at 67%.
Turning to `CC(NC(=O)c1cn(-c2c(F)cc(F)cc2F)c2nc(N3CC[C@H](O)C3)c(Br)cc2c1=O)C(F)(F)C(F)(F)F` (single isomer, unassigned) [Example 232], the pEC50 was 8.15 and the Emax stood at 100%.
For `O=C(N[C@@H](C1CC1)C(F)(F)F)c1cn(-c2c(F)cccc2F)c2nc(N3C[C@@H](O)[C@H](O)C3)c(F)cc2c1=O` [Example 2, N-[(1S)-1-Cyclopropyl-2,2,2-trifluoroethyl]-1-(2,6-difluorophenyl)-7-[(3R,4R)-3,4-dihydroxypyrrolidin-1-yl]-6-fluoro-4-oxo-1,4-dihydro-1,8-naphthyridine-3-carboxamide] the same measures were 7.45 and 96%.
The corresponding values for `CC[C@H](NC(=O)c1cn(-c2c(F)cccc2F)c2nc(N3C[C@@H](O)[C@H](O)C3)c(F)cc2c1=O)C(F)(F)F` [Example 3, 1-(2,6-Difluorophenyl)-7-[(3R,4R)-3,4-dihydroxypyrrolidin-1-yl]-6-fluoro-4-oxo-N-[(2S)-1,1,1-trifluorobutan-2-yl]-1,4-dihydro-1,8-naphthyridine-3-carboxamide] are 7.42 and 97%.
The corresponding values for `CC[C@H](NC(=O)c1cn(-c2c(F)cccc2F)c2nc(N(C)CCO)c(F)cc2c1=O)C(F)(F)F` [Example 4, 1-(2,6-Difluorophenyl)-6-fluoro-7-[(2-hydroxyethyl)(methyl)amino]-4-oxo-N-[(2S)-1,1,1-trifluorobutan-2-yl]-1,4-dihydro-1,8-naphthyridine-3-carboxamide] are 7.42 and 89%.
